In article PMC8037530, “Synthesis and Hybrid SAR Property Modeling of Novel Cholinesterase Inhibitors” (International Journal of Molecular Sciences, 2021):
Like-named read-outs stand apart in the source and are kept apart here.

Tests used:
[1] = Determination of lipophilicity by RP-HPLC (capacity factor k); format: physicochemical; details: C18, isocratic MeOH 72%/H2O 28%, 40 °C
Protocol: The lipophilicity of all the target compounds was investigated by means of RP-HPLC determination of capacity factors k with a subsequent calculation of log k. The retention times of individual compounds were determined under isocratic conditions with methanol as an organic modifier in the mobile phase using end-capped non-polar C18 stationary RP columns.
The HPLC separation system Agilent 1200 series equipped with a DAD SL (Agilent Technologies) was used. A chromatographic column Symmetry® C18 5 μm, 4.6 × 250 mm, Part No. W21751W016 (Waters Corp., Milford, MA, USA) was applied. The HPLC separation process was monitored by the ChemStation for LC 3D chromatography software (Agilent Technologies). Isocratic elution by a mixture of MeOH p.a. (72%) and H2O-HPLC Mili-Q grade (28%) as a mobile phase was used for the determination of the capacity factor k. The total flow of the column was 1.0 mL/min, injection 20 μL, column temperature 40 °C, and sample temperature 10 °C. The detection wavelength of 210 nm was chosen. A KI methanolic solution was used for the determination of the dead times (tD). Retention times (tR) were measured in minutes. The capacity factors k were calculated according to the formula k = (tR − tD)/tD, where tR is the retention time of the solute and tD is the dead time obtained using an unretained analyte. Each experiment was repeated three times.

BChE from equine serum = target: T1, BChE from equine serum (Equus caballus, UniProt P81908); assay: In vitro BChE inhibition, modified Ellman's method; format: biochemical; details: for SI (index selectivity) = IC50 (AChE)/IC50 (BChE): ratio IC50 AChE/IC50 BChE
T1 construct: BChE from equine serum; purchased Sigma, St. Louis, MO, USA; host or cells: equine serum
T1 sequence (P81908 whole entry): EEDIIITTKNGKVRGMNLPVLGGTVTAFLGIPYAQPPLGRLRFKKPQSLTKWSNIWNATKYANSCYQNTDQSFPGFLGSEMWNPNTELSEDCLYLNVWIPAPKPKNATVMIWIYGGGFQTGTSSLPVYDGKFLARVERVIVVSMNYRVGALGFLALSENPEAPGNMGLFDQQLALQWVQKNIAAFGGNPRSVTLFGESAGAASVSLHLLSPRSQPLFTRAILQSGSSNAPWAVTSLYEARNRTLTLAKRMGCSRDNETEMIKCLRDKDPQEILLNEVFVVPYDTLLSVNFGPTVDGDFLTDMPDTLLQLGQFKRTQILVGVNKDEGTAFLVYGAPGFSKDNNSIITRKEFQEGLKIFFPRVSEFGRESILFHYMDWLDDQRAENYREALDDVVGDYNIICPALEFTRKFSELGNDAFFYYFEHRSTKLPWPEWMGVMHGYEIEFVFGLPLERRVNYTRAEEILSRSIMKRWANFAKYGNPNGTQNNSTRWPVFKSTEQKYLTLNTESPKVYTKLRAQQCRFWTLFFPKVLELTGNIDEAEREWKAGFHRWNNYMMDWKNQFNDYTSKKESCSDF
Protocol: (§1) The ability of all the prepared compounds to inhibit AChE from electric eel (Electrophorus electricus) and BChE from equine serum (both purchased from Sigma, St. Louis, MO, USA) was determined in vitro using a modified Ellman’s method, as described in detail elsewhere. This is a simple, rapid, and direct method to determine the SH and -S-S- group content in proteins. The enzyme activity is measured indirectly by quantifying the concentration of the 5-thio-2-nitrobenzoic acid ion formed in the reaction between the thiol reagent 5,5’-dithiobis-2nitrobenzoic acid (DTNB) and thiocholine, which is a product of acetylthiocholine hydrolysis catalyzed by cholinesterases. The effectiveness of the tested inhibitors is expressed as the IC50 values.
(§2) The enzyme activity in the final reaction mixture (2 mL) was 0.2 U/mL, the concentration of the substrate (acetylthiocholine or butyrythiocholine) was 40 µM, and the concentration of DTNB was 0.1 mM for all reactions. All reactions were carried out at 25 °C in the presence of phosphate-buffered saline (0.1 M, pH 7.4) in a glass cuvette with a 1 cm optical path. All the studied inhibitors were dissolved in DMSO (concentration 0.01 M) and then diluted in demineralized water as necessary. […] All measurements were carried out in triplicate, and the average values of the reaction rate (v0—reaction in the absence of the inhibitor, vi—reaction in the presence of the inhibitor) were used for construction of the dependence v0/vi vs. concentration of the inhibitor.

[2] = In vitro cell viability assay (CCK-8); format: cell-based; details: human, THP-1 cells (human monocytic leukemia), read-out: relative cell viability
Protocol: The human monocytic leukemia THP-1 cell line was selected for this purpose, as we described previously. Nor 2 neither 28 show negative effect on relative cell viability up to the concentration of 30 µM. The relative cell viability was around 100% at this concentration. It makes compounds 2 and 28 interesting for further pharmacological evaluation and allows them to become lead compounds.
Human monocytic leukemia THP-1 cells were used for in vitro antiproliferative assays. Cells were obtained from the European Collection of Cell Cultures (ECACC, Salisbury, UK) and routinely cultured in Roswell Park Memorial Institute RPMI 1640 medium supplemented with 10% fetal bovine serum (FBS), 2% L-glutamine, 1% penicillin and streptomycin (all from Sigma-Aldrich) at 37 °C with 5% CO2. Cells were passaged twice a week. The effect of the compounds on cell viability was determined using a Cell Counting Kit-8 (CCK-8, 2-(2-methoxy-4-nitrophenyl)-3-(4-nitrophenyl)-5-(2,4-disulfophenyl)-2H-tetrazolium, monosodium salt, Sigma) according to the manufacturer’s instructions. The compounds were dissolved in DMSO and added to the cell suspension in the RPMI 1640 medium without FBS (5 × 10^5 cells/mL). […] After this incubation period, the relative cell viability (the ratio between cells treated with compounds and cells treated only with DMSO) was determined by CCK-8 kit.

[3] = target: T2, AChE from electric eel (Electrophorus electricus) (Electrophorus electricus, UniProt O42275); assay: In vitro AChE inhibition, modified Ellman's method; format: biochemical
T2 construct: purchased Sigma, St. Louis, MO, USA
T2 sequence (O42275 24-633): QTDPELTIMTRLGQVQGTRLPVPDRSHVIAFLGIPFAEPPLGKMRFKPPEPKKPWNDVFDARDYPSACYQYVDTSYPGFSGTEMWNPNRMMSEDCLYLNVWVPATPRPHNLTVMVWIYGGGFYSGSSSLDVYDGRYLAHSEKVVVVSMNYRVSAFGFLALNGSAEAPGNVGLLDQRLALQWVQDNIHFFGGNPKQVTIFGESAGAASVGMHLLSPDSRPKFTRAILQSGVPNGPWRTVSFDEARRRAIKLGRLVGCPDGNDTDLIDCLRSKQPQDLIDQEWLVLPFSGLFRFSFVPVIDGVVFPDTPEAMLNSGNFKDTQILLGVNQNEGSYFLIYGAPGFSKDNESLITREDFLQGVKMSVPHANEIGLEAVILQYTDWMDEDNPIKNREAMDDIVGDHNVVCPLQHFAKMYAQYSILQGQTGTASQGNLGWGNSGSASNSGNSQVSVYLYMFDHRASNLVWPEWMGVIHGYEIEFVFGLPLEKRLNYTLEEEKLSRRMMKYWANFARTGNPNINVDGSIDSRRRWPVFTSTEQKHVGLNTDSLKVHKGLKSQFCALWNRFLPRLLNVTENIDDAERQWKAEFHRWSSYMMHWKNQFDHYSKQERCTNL
Protocol: as §1, §2

In the case of `COc1ccccc1NC(=O)c1ccc(NC(=O)OCc2ccccc2)cc1O` [Compound 2, Benzyl{3-hydroxy-4-[(2-methoxyphenyl)carbamoyl]phenyl}carbamate], the log k [1] is reported as 0.3368, the IC50 (BChE from equine serum) is reported as 22.2 ± 0.53 µM and the “SI (index selectivity) = IC50 (AChE)/IC50 (BChE)” value (“SI (index selectivity) = IC50” below) (BChE from equine serum) is reported as 2.26. For the same compound, the viability at 24 h, 30 µM [2] was ~100% and the IC50 [3] was 50.1 ± 1.57 µM.
For `O=C(Nc1ccc(C(=O)Nc2cccc(C(F)(F)F)c2)c(O)c1)OCc1ccccc1` [Compound 13, Benzyl(3-hydroxy-4-{[3-(trifluoromethyl)phenyl]carbamoyl}phenyl)carbamate], the log k [1] was 0.4477, the IC50 (BChE from equine serum) was 309 ± 8.06 µM and the “SI (index selectivity) = IC50” value (BChE from equine serum) was 0.23. It also gave an IC50 [3] of 70.67 ± 0.57 µM.
In the case of `O=C(Nc1ccc(C(=O)Nc2ccc(C(F)(F)F)cc2)c(O)c1)OCc1ccccc1` [Compound 14, Benzyl(3-hydroxy-4-{[4-(trifluoromethyl)phenyl]carbamoyl}phenyl)carbamate], the log k [1] is reported as 0.7408, the IC50 (BChE from equine serum) is reported as 137 ± 21.9 µM and the “SI (index selectivity) = IC50” value (BChE from equine serum) is reported as 0.52. The IC50 [3] was 71.4 ± 5.04 µM.
For `O=C(Nc1ccc(C(=O)Nc2ccccc2OC(F)(F)F)c(O)c1)OCc1ccccc1` [Compound 15, Benzyl(3-hydroxy-4-{[2-(trifluoromethoxy)phenyl]carbamoyl}phenyl)carbamate], the log k [1] was 0.6227, the IC50 (BChE from equine serum) was 44.3 ± 0.87 µM and the “SI (index selectivity) = IC50” value (BChE from equine serum) was 0.81. It also gave an IC50 [3] of 36 ± 1.48 µM.
For `O=C(Nc1ccc(C(=O)Nc2cccc(F)c2F)c(O)c1)OCc1ccccc1` [Compound 16, Benzyl{4-[(2,3-difluorophenyl)carbamoyl]-3-hydroxyphenyl}carbamate], the log k [1] was 0.4705, the IC50 (BChE from equine serum) was 200 ± 7 µM and the “SI (index selectivity) = IC50” value (BChE from equine serum) was 0.31. For the same compound, the IC50 [3] was 62.4 ± 1.42 µM.
With `O=C(Nc1ccc(C(=O)Nc2ccc(F)cc2F)c(O)c1)OCc1ccccc1` [Compound 17, Benzyl{4-[(2,4-difluorophenyl)carbamoyl]-3-hydroxyphenyl}carbamate] the log k [1] was 0.1912, the IC50 (BChE from equine serum) was 180 ± 7.04 µM and the “SI (index selectivity) = IC50” value (BChE from equine serum) was 0.44. The IC50 [3] was 79.2 ± 1.27 µM.
With `O=C(Nc1ccc(C(=O)Nc2cc(F)ccc2F)c(O)c1)OCc1ccccc1` [Compound 18, Benzyl{4-[(2,5-difluorophenyl)carbamoyl]-3-hydroxyphenyl}carbamate] the log k [1] was 0.4012, the IC50 (BChE from equine serum) was 157 ± 3.11 µM and the “SI (index selectivity) = IC50” value (BChE from equine serum) was 0.37. For the same compound, the IC50 [3] was 58.31 ± 0.2 µM.
In the case of `O=C(Nc1ccc(C(=O)Nc2c(F)cccc2F)c(O)c1)OCc1ccccc1` [Compound 19, Benzyl{4-[(2,6-difluorophenyl)carbamoyl]-3-hydroxyphenyl}carbamate], the log k [1] is reported as -0.1205, the IC50 (BChE from equine serum) is reported as 42.9 ± 2.13 µM and the “SI (index selectivity) = IC50” value (BChE from equine serum) is reported as 1.50. It also gave an IC50 [3] of 64.3 ± 4.74 µM.
With `O=C(Nc1ccc(C(=O)Nc2cc(F)cc(F)c2)c(O)c1)OCc1ccccc1` [Compound 20, Benzyl{4-[(3,5-difluorophenyl)carbamoyl]-3-hydroxyphenyl}carbamate] the log k [1] was 0.4072, the IC50 (BChE from equine serum) was 208 ± 5.3 µM and the “SI (index selectivity) = IC50” value (BChE from equine serum) was 0.32. For the same compound, the IC50 [3] was 67.4 ± 5.24 µM.
With `O=C(Nc1ccc(C(=O)Nc2cccc(Cl)c2Cl)c(O)c1)OCc1ccccc1` [Compound 21, Benzyl{4-[(2,3-dichlorophenyl)carbamoyl]-3-hydroxyphenyl}carbamate] the log k [1] was 0.5497, the IC50 (BChE from equine serum) was 248 ± 14.9 µM and the “SI (index selectivity) = IC50” value (BChE from equine serum) was 0.36. The IC50 [3] was 88.8 ± 1.42 µM.
In the case of `O=C(Nc1ccc(C(=O)Nc2cc(Cl)ccc2Cl)c(O)c1)OCc1ccccc1` [Compound 22, Benzyl{4-[(2,5-dichlorophenyl)carbamoyl]-3-hydroxyphenyl}carbamate], the log k [1] is reported as 0.6138, the IC50 (BChE from equine serum) is reported as 141 ± 7.12 µM and the “SI (index selectivity) = IC50” value (BChE from equine serum) is reported as 0.70. It also gave an IC50 [3] of 99.14 ± 0.2 µM.
With `O=C(Nc1ccc(C(=O)Nc2c(Cl)cccc2Cl)c(O)c1)OCc1ccccc1` [Compound 23, Benzyl{4-[(2,6-dichlorophenyl)carbamoyl]-3-hydroxyphenyl}carbamate] the log k [1] was 0.8125, the IC50 (BChE from equine serum) was 117.6 ± 1.11 µM and the “SI (index selectivity) = IC50” value (BChE from equine serum) was 0.65. For the same compound, the IC50 [3] was 76.74 ± 0.74 µM.
In the case of `O=C(Nc1ccc(C(=O)Nc2ccc(Cl)c(Cl)c2)c(O)c1)OCc1ccccc1` [Compound 24, Benzyl{4-[(3,4-dichlorophenyl)carbamoyl]-3-hydroxyphenyl}carbamate], the log k [1] is reported as 0.6664, the IC50 (BChE from equine serum) is reported as 185 ± 6.13 µM and the “SI (index selectivity) = IC50” value (BChE from equine serum) is reported as 0.31. For the same compound, the IC50 [3] was 58 ± 5.83 µM.
In the case of `O=C(Nc1ccc(C(=O)Nc2cc(Cl)cc(Cl)c2)c(O)c1)OCc1ccccc1` [Compound 25, Benzyl{4-[(3,5-dichlorophenyl)carbamoyl]-3-hydroxyphenyl}carbamate], the log k [1] is reported as 0.9084, the IC50 (BChE from equine serum) is reported as 143 ± 3.69 µM and the “SI (index selectivity) = IC50” value (BChE from equine serum) is reported as 0.35. It also gave an IC50 [3] of 50.62 ± 0.38 µM.
For `O=C(Nc1ccc(C(=O)Nc2ccc(Br)cc2Br)c(O)c1)OCc1ccccc1` [Compound 26, Benzyl{4-[(2,4-dibromophenyl)carbamoyl]-3-hydroxyphenyl}carbamate], the log k [1] was 0.7366, the IC50 (BChE from equine serum) was 262 ± 5.1 µM and the “SI (index selectivity) = IC50” value (BChE from equine serum) was 0.36. For the same compound, the IC50 [3] was 94.9 ± 0.97 µM.
For `O=C(Nc1ccc(C(=O)Nc2cc(C(F)(F)F)cc(C(F)(F)F)c2)c(O)c1)OCc1ccccc1` [Compound 27, Benzyl{4-[(3,5-di(trifluoromethyl))carbamoyl]-3-hydroxyphenyl}carbamate], the log k [1] was 0.9667, the IC50 (BChE from equine serum; mean ± SD, n = 3, equine serum BChE, 25 °C, pH 7.4, read-out: IC50 BChE) was 146 ± 2.65 µM and the “SI (index selectivity) = IC50” value (BChE from equine serum) was 0.41. For the same compound, the IC50 ([3]; mean ± SD, n = 3, electric eel AChE, 25 °C, pH 7.4, read-out: IC50 AChE) was 59.4 ± 3.38 µM.
In the case of `O=C(Nc1ccc(C(=O)Nc2c(F)cc(F)cc2F)c(O)c1)OCc1ccccc1` [Compound 28, Benzyl{3-hydroxy-4-[(2,4,6-trifluorophenyl)carbamoyl]phenyl}carbamate], the log k [1] is reported as -0.0131, the IC50 (BChE from equine serum) is reported as 31 ± 2.11 µM and the “SI (index selectivity) = IC50” value (BChE from equine serum) is reported as 1.61. It also gave a viability at 24 h, 30 µM [2] of ~100% and an IC50 [3] of 49.87 ± 0.09 µM.
For `O=C(Nc1ccc(C(=O)Nc2cc(F)c(F)c(F)c2)c(O)c1)OCc1ccccc1` [Compound 29, Benzyl{3-hydroxy-4-[(3,4,5-trifluorophenyl)carbamoyl]phenyl}carbamate], the log k [1] was 0.5169, the IC50 (BChE from equine serum) was 183.7 ± 0.75 µM and the “SI (index selectivity) = IC50” value (BChE from equine serum) was 0.34. For the same compound, the IC50 [3] was 62.3 ± 0.75 µM.
In the case of `O=C(Nc1ccc(C(=O)Nc2c(Cl)cc(Cl)cc2Cl)c(O)c1)OCc1ccccc1` [Compound 31, Benzyl{3-hydroxy-4-[(2,4,6-trichlorophenyl)carbamoyl]phenyl}carbamate], the log k [1] is reported as 0.3679, the IC50 (BChE from equine serum) is reported as 57.1 ± 1.72 µM and the “SI (index selectivity) = IC50” value (BChE from equine serum) is reported as 1.63. The IC50 [3] was 93.1 ± 1.8 µM.
For `O=C(Nc1ccc(C(=O)Nc2c(Br)cc(Br)cc2Br)c(O)c1)OCc1ccccc1` [Compound 32, Benzyl{3-hydroxy-4-[(2,4,6-tribromophenyl)carbamoyl]phenyl}carbamate], the log k [1] was 0.4427, the IC50 (BChE from equine serum) was 56 ± 0.58 µM and the “SI (index selectivity) = IC50” value (BChE from equine serum) was 1.18. The IC50 [3] was 65.9 ± 2.81 µM.
